The values that follow come from patent US8293774B2, “Optically active (R)-aryloxypropionic acid amides and herbicidal composition comprising same” (Kyung Nong Corporation, priority 2007, dated 2012).

Data set [1] has as its system GLXMA (Glycine max(L.) MERR, soy bean). In words: Weed control test, foliage treatment (Test Example 1, Table 7). As to conditions: in vivo. The procedure:
(§1) Seeds of rice, wheat, soy bean, barley, corn, common sorgum, barnyard grass, large crabgrass, creek grass, green foxtail and fall panicum were placed in sandy loam in 600 cm^2 pots and covered with soil. After keeping the pots in a greenhouse at 20 to 30° C. allowing growth of the plants to the 3-leaf stage of the barnyard grass, 2,000 l/ha of an emulsion obtained by diluting with water a mixture of 1 part by weight of a test compound, 5 parts by weight of acetone and 1 part by weight of an emulsifying agent (Tween 80, Junsei) was applied to the surface of the foliage of the plants. The plant damage at 10 days and 20 days after the foliage treatment was visually evaluated from the level of 1 to 100% by comparison with the untreated control: […]

Data set [2] has as its system ORYSA (Oryza sativa cv. Dongjin, rice). The data set is described as above. As to conditions: in vivo. How it is done: as §1
Data set [3] concerns HORVU (Hordeum vulgare L., barley). Described as above. As to conditions: in vivo. How it is done: as §1
The test system of data set [4] is TRZAW (Tritium aestivum L., wheat). The description is as above. As to conditions: in vivo. How it is done: as §1
In data set [5] the test system is ZEAMX (Zea mays L., corn). The data set is described as above. As to conditions: Zea mays, foliar, read-out: Plant damage (herbicidal activity), visually evaluated, ZEAMX; for plant injury at 25 g/ha: 0.025 kg/ha; for plant injury at 100 g/ha: 0.1 kg/ha; for plant injury at 200 g/ha: 0.2 kg/ha. The data set is classed as in vivo. How it is done:
as §1

In data set [6] the test system is PANDI (Panium dichotomiflorum Michx, fall panicum). The description is as above. Particulars: Panicum dichotomiflorum, foliar, read-out: Plant damage (herbicidal activity), visually evaluated, PANDI; for pest or weed control at 25 g/ha: 0.025 kg/ha; for pest or weed control at 100 g/ha: 0.1 kg/ha; for pest or weed control at 200 g/ha: 0.2 kg/ha. It counts as in vivo. The procedure: as §1

In data set [7] the test system is SORBI (Andropogon sorghum, common sorgum). Described as above. Particulars: Sorghum bicolor, foliar, read-out: Plant damage (herbicidal activity), visually evaluated, SORBI; for pest or weed control at 25 g/ha: 0.025 kg/ha; for pest or weed control at 100 g/ha: 0.1 kg/ha; for pest or weed control at 200 g/ha: 0.2 kg/ha. The data set is classed as in vivo. The procedure: as §1

In data set [8] the test system is ARTHIS (Arthraxon hispidus (Thunb.) Makino, creek grass). The description is as above. The data set is classed as in vivo. As to conditions: Arthraxon hispidus, foliar, read-out: Plant damage (herbicidal activity), visually evaluated, ARTHIS; for pest or weed control at 25 g/ha: 0.025 kg/ha; for pest or weed control at 100 g/ha: 0.1 kg/ha; for pest or weed control at 200 g/ha: 0.2 kg/ha. The procedure:
as §1

Data set [9] has as its system SETVIR (Setaria viridis (L.) Beauv, green foxtail). Described as above. It counts as in vivo. As to conditions: Setaria viridis, foliar, read-out: Plant damage (herbicidal activity), visually evaluated, SETVIR; for pest or weed control at 25 g/ha: 0.025 kg/ha; for pest or weed control at 100 g/ha: 0.1 kg/ha; for pest or weed control at 200 g/ha: 0.2 kg/ha. How it is done: as §1

The test system of data set [10] is ECHOG (Echinoch crus-galli Beauv. var. caudata Kitagawa, barnyard grass). The data set is described as above. The data set is classed as in vivo. As to conditions: Echinochloa crus-galli, foliar, 3-leaf stage, read-out: Plant damage (herbicidal activity), visually evaluated, ECHOG; for pest or weed control at 25 g/ha: 0.025 kg/ha; for pest or weed control at 100 g/ha: 0.1 kg/ha; for pest or weed control at 200 g/ha: 0.2 kg/ha. How it is done:
as §1

Data set [11] relates to DIGSA (Digitaria Sanguinalis (L.) SCOP, large crabgrass). The data set is described as above. The data set is classed as in vivo. As to conditions: Digitaria sanguinalis, foliar, read-out: Plant damage (herbicidal activity), visually evaluated, DIGSA; for pest or weed control at 25 g/ha: 0.025 kg/ha; for pest or weed control at 100 g/ha: 0.1 kg/ha; for pest or weed control at 200 g/ha: 0.2 kg/ha. How it is done:
as §1

The next data set deals with Barnyard grass. Description: Weed control test, 4-leaf stage plants (Test Example 1, Table 8). It counts as in vivo, Echinoch crus-galli Beauv. var. caudata Kitagawa.
Text: as §1, with “[…],” for “After keeping the pots in a greenhouse at 20 to 30° C. allowing growth of the plants to the 3-leaf stage of the barnyard grass,”

Structures are written as SMILES.

With `C[C@@H](Oc1ccc(Oc2ccc(C#N)cc2F)cc1)C(=O)Nc1nc2ccccc2s1` [Example 19, (R)-2-[4-(4-cyano-2-fluorophenoxy)phenoxy]propionic acid-N-(2-benzothiazolyl)amide], the “Plant damage (herbicidal activity), visually evaluated, GLXMA” value (shortened to “Plant damage (herbicidal activity) … GLXMA”) in data set [1] stood at 0%. The “Plant damage (herbicidal activity), visually evaluated, ORYSA” value in [2] turned out to be 0%. Also, the “Plant damage (herbicidal activity), visually evaluated, HORVU” value (from here on “Plant damage (herbicidal activity) … HORVU”) in data set [3] was determined as 0%. The “Plant damage (herbicidal activity), visually evaluated, TRZAW” value (“Plant damage (herbicidal activity) … TRZAW” for short) in data set [4] was found to be 0%. For the same compound, the plant injury at 25 g/ha in data set [5] amounted to 0%. In addition, in [5], the plant injury at 100 g/ha is 10%. Also, in [5], the plant injury at 200 g/ha is 30%. Also, the pest or weed control at 25 g/ha in data set [6] is 0%; in [7], 20%; in data set [8] it was 0%; in data set [9], 0%; in data set [10] it was 0%; in data set [11], 0%. Further, the pest or weed control at 100 g/ha in data set [6] was determined as 0%; in data set [7], 60%; in data set [8], 10%; in data set [9] it was 10%; in data set [10] it was 20%; in [11] it was 10%. Further, the pest or weed control at 200 g/ha is 0% in [6]; 70% in data set [7]; 10% in data set [8]; 10% in [9]; 30% in [10]; 30% in [11].
Regarding `C[C@@H](Oc1ccc(Oc2ccc(C#N)cc2F)cc1)C(=O)Nc1nc2ccc(Cl)cc2s1` [Example 21, (R)-2-[4-(4-cyano-2-fluorophenoxy)phenoxy]propionic acid-N-(6-chloro-2-benzothiazolyl)amide], the “Plant damage (herbicidal activity) … GLXMA” value in [1] stood at 0%. The “Plant damage (herbicidal activity), visually evaluated, ORYSA” value in data set [2] stood at 0%. Also, the “Plant damage (herbicidal activity) … HORVU” value in [3] was 0%. Moreover, in [4], the “Plant damage (herbicidal activity) … TRZAW” value was 0%. Moreover, the plant injury at 25 g/ha in data set [5] is 20%. The plant injury at 100 g/ha in data set [5] stood at 90%. In addition, the plant injury at 200 g/ha in data set [5] turned out to be 100%. Also, the pest or weed control at 25 g/ha worked out at 0% in data set [6]; 0% in data set [7]; 0% in [8]; 0% in data set [9]; 20% in [10]; 0% in data set [11]. Further, the pest or weed control at 100 g/ha is 70% in data set [6]; 20% in data set [7]; 70% in data set [8]; 70% in data set [9]; 70% in data set [10]; 20% in data set [11]. Also, the pest or weed control at 200 g/ha in data set [6] was determined as 70%; in data set [7], 50%; in data set [8], 70%; in [9], 90%; in data set [10], 90%; in data set [11], 90%.
In the case of `COc1ccc2nc(NC(=O)[C@@H](C)Oc3ccc(Oc4ccc(C#N)cc4F)cc3)sc2c1` [Example 27, (R)-2-[4-(4-cyano-2-fluorophenoxy)phenoxy]propionic acid-N-(6-methoxy-2-benzothiazolyl)amide], in data set [1], the “Plant damage (herbicidal activity) … GLXMA” value came to 0%. Moreover, in data set [3], the “Plant damage (herbicidal activity) … HORVU” value is reported as 0%. Moreover, the “Plant damage (herbicidal activity) … TRZAW” value in data set [4] amounted to 0%. For the same compound, the plant injury at 25 g/ha in data set [5] was 10%. Further, in [5], the plant injury at 100 g/ha stood at 90%. In addition, the plant injury at 200 g/ha in data set [5] amounted to 90%. For the same compound, the pest or weed control at 25 g/ha in data set [6] worked out at 0%; in data set [7] it was 0%; in data set [8], 0%; in data set [9], 0%; in [10] it was 20%; in data set [11], 0%. In addition, the pest or weed control at 100 g/ha is 0% in data set [6]; 20% in data set [7]; 0% in [8]; 0% in [9]; 70% in data set [10]; 20% in [11]. The pest or weed control at 200 g/ha in [6] came out at 10%; in [7], 20%; in data set [8], 10%; in [9], 20%; in [10] it was 90%; in [11], 90%.
As for `Cc1ccnc(NC(=O)[C@@H](C)Oc2ccc(Oc3ccc(C#N)cc3F)cc2)c1` [Example 33, (R)-2-[4-(4-cyano-2-fluorophenoxy)phenoxy]propionic acid-N-(4-methyl-2-pyridinyl)amide], the “Plant damage (herbicidal activity), visually evaluated, Barnyard grass” value in the data set with Barnyard grass (0.025 kg/ha) was 10%; with Barnyard grass (0.05 kg/ha) it was 40%; in the data set with Barnyard grass (0.1 kg/ha), 100%; in the data set on Barnyard grass (0.4 kg/ha), 100%.
As to `C[C@@H](Oc1ccc(OC(F)=Cc2ccc(F)cc2)cc1)C(=O)Nc1nc2cc(Cl)ccc2o1` [Example 52, (R)-2-[4-(1-fluoro-2-(4-fluorophenyl)vinyloxy)phenoxy]propionic acid-N-(5-chloro-2-benzoxazolyl)amide], the “Plant damage (herbicidal activity) … GLXMA” value in [1] worked out at 0%. Also, the “Plant damage (herbicidal activity) … HORVU” value in data set [3] is on record as 0%. Moreover, in [4], the “Plant damage (herbicidal activity) … TRZAW” value is 0%. In addition, the plant injury at 25 g/ha in [5] amounted to 10%. In [5], the plant injury at 100 g/ha is 30%. Moreover, in data set [5], the plant injury at 200 g/ha stood at 30%. Moreover, the pest or weed control at 25 g/ha in [6], in [7], in data set [8], in [9], in data set [10] and in data set [11] was 0% throughout. The pest or weed control at 100 g/ha in data set [6], in [7], in data set [8], in data set [9], in data set [10] and in [11] was 0% each time. For the same compound, the pest or weed control at 200 g/ha in data set [6] worked out at 0%; in [7] it was 0%; in data set [8], 0%; in [9] it was 10%; in data set [10], 20%; in [11], 10%.
